One may read the IC50 as the concentration that gives 50% inhibition. The low end stands for greater potency, the high end for weaker potency.

Where a name gives a salt, the structure may show the parent alone.

Consider 23 compounds from US20090270435A1 (priority 2006, published 2009).

The target in experiment [1] is T1, ACC2 from rat skeletal muscle (Rattus norvegicus, UniProt Q1HEC0).
T1 construct: The livers (for ACC1 preparation) or skeletal muscle tissue (for ACC2 preparation) are removed; from tissue; host or cells: skeletal muscle of male CD rats (fasted, then fed a high sucrose diet)
The experiment is described as follows: Direct inhibition of ACC2 activity (14C-bicarbonate incorporation). Type of experiment: biochemical. The settings on record: ACC2 from rat skeletal muscle. The protocol: For example direct inhibition of ACC1 and ACC2 activity, for compounds of Formula (1) were determined using preparations of ACC1 from rat liver and ACC2 from rat skeletal muscle.
[1] Preparation of ACC1 and ACC2. ACC1 was obtained from rat liver and ACC2 was obtained from rat skeletal muscle based upon standard procedures such as those described by Thampy and Wakil (J. Biol. Chem. 260: 6318-6323; 1985) using the following method.
Male CD rats weighing 150-200 g are fasted for 2 days and then fed a high sucrose diet (AIN-76A rodent diet; Cat # D10001, Research Diets Inc., New Brunswick, N.J.), for 3 days at which time they are sacrificed by CO2 asphyxiation. The livers (for ACC1 preparation) or skeletal muscle tissue (for ACC2 preparation) are removed, rinsed in ice-cold phosphate-buffered saline (PBS), and homogenized in 5 volumes of homogenization buffer (50 mM potassium phosphate, pH 7.5, 10 mM EDTA, 10 mM 2-mercaptoethanol, 2 mM benzamidine, 0.2 mM phenylmethylsulfonylfluoride (PMSF), 5 mg/L each leupeptin, aprotinin, and antitrypsin) in a Waring® blender for 1 minute at 4° C. All subsequent operations are carried out at 4° C. The homogenate is made 3% with respect to polyethylene glycol (PEG) by the addition of 50% PEG solution and centrifuged at 20,000×g for 15 minutes. The resulting supernatant is adjusted to 5% PEG with the addition of 50% PEG solution and stirred for 5 minutes. The pellet (contains ACC activity) is collected by centrifugation at 20,000×g for 20 minutes, rinsed with Ice-cold doubly distilled water to remove excess PEG and re-suspended in one-fourth the original homogenate volume with homogenization buffer. Ammonium sulfate (200 g/liter) is slowly added with stirring. After 45 minutes the enzyme is collected by centrifugation for 30 minutes at 20,000×g, re-suspended in 10 ml of 50 mM HEPES, pH7.5, 0.1 mM DTT, 1.0 mM EDTA, and 10% glycerol and desalted on a Sephadex™ G-25 column (2.5 cm-x 50 cm) (Pharmacia, Piscataway N.J. now GE Healthcare) […] equilibrated with the same buffer. The desalted enzyme preparation is stored in aliquots at −70° C. Immediately prior to use, frozen ACC1 or ACC2 aliquots are thawed, diluted to 500 μg/ml in buffer containing 50 mM HEPES, pH7.5, 1.0 mM MgCl2, 10 mM tripotassium citrate, 2.0 mM dithiothreitol (DTT), and 0.75 mg/ml fatty acid-free bovine serum albumin (BSA) and pre-incubated at 37° C. for 30 minutes.
[2] Measurement of ACC inhibition. The procedures for measuring ACC1 inhibition and ACC2 inhibition are identical except for the source of the isozyme. For measurement of ACC activity and assessment of ACC inhibition, test compounds are dissolved in dimethylsulfoxide (DMSO) and 1 μL aliquots are placed in 0.5 ml polypropylene tubes. Control tubes contain 1 μL of DMSO alone. Tubes are incubated at 37° C. in a constant temperature water bath. […] The reaction is then initiated by the addition of 10 μL of preincubated ACC fraction prepared as described above. After 7 minutes the reaction is terminated by the addition of 50 μL of 6N HCl and a 150 μL aliquot of the reaction mixture is transferred to glass scintillation vials and evaporated to dryness at 90° C. for at least 1 hour. The dried vials are then cooled, 0.5 ml of water and 5.5 ml of Ready Safe liquid scintillation fluid (Beckman Coulter Inc., Fullerton, Calif.) are added, and the radioactivity is determined using a liquid scintillation counter. Tubes that received HCl before ACC served as blanks.
[3] Specificity for ACC1 vs ACC2 inhibition. The specificity of a compound for Inhibiting ACC1 vs ACC2 can be determined by comparing the concentration of test compound required to inhibit 50% of the activity contained in an aliquot of ACC1 as compared with the concentration of the same compound required to inhibit 50% of the activity of an aliquot of ACC2.

The target of experiment [2] is T2, ACC1 from rat liver (Rattus norvegicus, UniProt P11497).
T2 construct: The livers (for ACC1 preparation) or skeletal muscle tissue (for ACC2 preparation) are removed; from tissue; host or cells: liver of male CD rats (fasted, then fed a high sucrose diet)
The experiment is described as follows: Direct inhibition of ACC1 activity (14C-bicarbonate incorporation). Type of experiment: biochemical. The method in brief: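 ACC1 partially purified from livers of fasted/sucrose-refed male rats by PEG and ammonium sulfate fractionation, then preincubated 30 min at 37°C with 10 mM citrate and 1.0 mM MgCl2. Reaction ran 7 min at 37°C, stopped with HCl; acid-stable radioactivity counted by scintillation; HCl-first tubes served as blanks.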

T1 sequence (Q1HEC0 17-2455): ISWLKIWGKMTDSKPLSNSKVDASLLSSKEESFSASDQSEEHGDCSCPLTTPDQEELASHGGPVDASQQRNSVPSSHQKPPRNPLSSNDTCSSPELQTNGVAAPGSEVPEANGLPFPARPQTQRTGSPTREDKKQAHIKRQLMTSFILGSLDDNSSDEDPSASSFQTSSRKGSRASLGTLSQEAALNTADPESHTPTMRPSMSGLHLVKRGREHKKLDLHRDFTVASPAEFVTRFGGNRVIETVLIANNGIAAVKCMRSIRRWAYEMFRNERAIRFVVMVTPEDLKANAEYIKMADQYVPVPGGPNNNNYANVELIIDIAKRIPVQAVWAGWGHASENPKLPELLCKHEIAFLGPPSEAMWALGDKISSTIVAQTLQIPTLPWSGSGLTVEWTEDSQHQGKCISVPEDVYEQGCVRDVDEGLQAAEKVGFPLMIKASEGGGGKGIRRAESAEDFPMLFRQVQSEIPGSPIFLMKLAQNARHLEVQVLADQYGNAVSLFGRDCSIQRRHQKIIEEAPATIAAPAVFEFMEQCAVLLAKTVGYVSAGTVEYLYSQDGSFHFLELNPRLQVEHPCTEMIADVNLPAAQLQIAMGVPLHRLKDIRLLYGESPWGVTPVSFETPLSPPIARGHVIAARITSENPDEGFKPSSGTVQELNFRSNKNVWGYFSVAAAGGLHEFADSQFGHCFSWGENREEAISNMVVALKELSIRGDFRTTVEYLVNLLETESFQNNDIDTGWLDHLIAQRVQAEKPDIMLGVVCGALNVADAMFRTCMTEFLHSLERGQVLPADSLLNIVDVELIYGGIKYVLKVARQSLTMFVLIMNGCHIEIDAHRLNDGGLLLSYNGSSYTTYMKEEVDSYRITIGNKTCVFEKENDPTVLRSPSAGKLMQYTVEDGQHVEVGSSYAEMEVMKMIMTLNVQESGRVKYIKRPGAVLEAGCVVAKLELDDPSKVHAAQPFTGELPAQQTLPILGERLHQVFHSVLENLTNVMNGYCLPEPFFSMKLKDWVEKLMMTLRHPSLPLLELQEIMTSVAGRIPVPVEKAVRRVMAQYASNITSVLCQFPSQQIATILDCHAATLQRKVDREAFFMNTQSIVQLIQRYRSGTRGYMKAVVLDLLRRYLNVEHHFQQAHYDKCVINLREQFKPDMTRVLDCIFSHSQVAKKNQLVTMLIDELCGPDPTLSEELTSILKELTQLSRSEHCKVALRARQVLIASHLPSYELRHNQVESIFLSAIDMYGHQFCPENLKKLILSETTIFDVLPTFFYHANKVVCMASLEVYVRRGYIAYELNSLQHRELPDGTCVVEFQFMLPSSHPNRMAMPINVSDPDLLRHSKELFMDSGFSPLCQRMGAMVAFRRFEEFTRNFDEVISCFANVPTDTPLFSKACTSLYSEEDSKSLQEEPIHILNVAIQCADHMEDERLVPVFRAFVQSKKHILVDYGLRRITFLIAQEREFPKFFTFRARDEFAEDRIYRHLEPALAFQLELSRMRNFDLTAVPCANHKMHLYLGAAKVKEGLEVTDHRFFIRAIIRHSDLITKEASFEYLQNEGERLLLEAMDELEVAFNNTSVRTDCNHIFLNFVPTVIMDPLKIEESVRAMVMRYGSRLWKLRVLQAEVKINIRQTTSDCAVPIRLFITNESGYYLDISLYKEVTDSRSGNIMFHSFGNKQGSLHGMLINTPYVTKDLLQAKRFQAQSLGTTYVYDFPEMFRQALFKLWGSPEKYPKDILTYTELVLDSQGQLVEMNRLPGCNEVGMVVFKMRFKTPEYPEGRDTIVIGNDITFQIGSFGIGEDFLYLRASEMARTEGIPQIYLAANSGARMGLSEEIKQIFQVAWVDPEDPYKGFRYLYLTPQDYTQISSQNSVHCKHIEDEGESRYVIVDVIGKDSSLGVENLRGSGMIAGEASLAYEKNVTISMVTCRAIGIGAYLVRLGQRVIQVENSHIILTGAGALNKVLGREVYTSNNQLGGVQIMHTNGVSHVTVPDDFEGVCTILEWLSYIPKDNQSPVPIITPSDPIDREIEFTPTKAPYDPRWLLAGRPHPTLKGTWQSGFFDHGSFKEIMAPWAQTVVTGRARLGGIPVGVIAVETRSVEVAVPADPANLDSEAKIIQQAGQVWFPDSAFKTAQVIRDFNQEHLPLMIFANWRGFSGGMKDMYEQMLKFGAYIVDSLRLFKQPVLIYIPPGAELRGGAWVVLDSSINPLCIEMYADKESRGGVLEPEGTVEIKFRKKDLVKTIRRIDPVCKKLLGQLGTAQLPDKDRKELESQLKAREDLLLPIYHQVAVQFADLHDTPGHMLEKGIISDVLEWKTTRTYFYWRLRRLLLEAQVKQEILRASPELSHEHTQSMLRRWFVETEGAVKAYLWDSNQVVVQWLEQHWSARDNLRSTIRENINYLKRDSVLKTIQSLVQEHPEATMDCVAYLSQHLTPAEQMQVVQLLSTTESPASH

Regarding `COc1ccc2c(c1)C(=O)CC1(CCN(C(=O)c3cc(Cl)c4[nH]ncc4c3)CC1)O2` [Ex. B5, 1′-[(7-chloro-1H-indazol-5-yl)carbonyl]-6-methoxyspiro[chromene-2,4′-piperidin]-4(3H)-one], the concentration for half-maximal inhibition (IC50) in experiment [1] was found to be 231 nM; in experiment [2] (ACC1 from rat liver), 81 nM. Turning to `CC(C)Oc1ccc2c(c1)C(=O)CC1(CCN(C(=O)c3cc(Cl)c4[nH]ncc4c3)CC1)O2` [Ex. B2, 1′-[(7-chloro-1H-indazol-5-yl)carbonyl]-6-isopropoxyspiro[chromene-2,4′-piperidin]-4(3H)-one], the IC50 in experiment [1] stood at 31.1 nM; in experiment [2] (ACC1 from rat liver), 16.1 nM.

Take `Cc1cc2c(cc1Cl)C(=O)CC1(CCN(C(=O)c3cc(Cl)c4[nH]ncc4c3)CC1)O2` [Ex. B4, 6-chloro-7-methyl-1′-[(7-chloro-1H-indazol-5-yl)carbonyl]spiro[chromene-2,4′-piperidin]-4(3H)-one]: the IC50 in experiment [1] amounted to 127 nM; in experiment [2] (ACC1 from rat liver), 56.8 nM.

Take `CCOc1ccc2c(c1)C(=O)CC1(CCN(C(=O)c3cc(Cl)c4[nH]ncc4c3)CC1)O2` [Ex. B3, 1′-[(7-chloro-1H-indazol-5-yl)carbonyl]-6-ethoxyspiro[chromene-2,4′-piperidin]-4(3H)-one]: the IC50 turned out to be 34.3 nM in experiment [1] and 21.4 nM in experiment [2] (ACC1 from rat liver).

`COc1ccc2c(c1)C(=O)CC1(CCN(C(=O)c3cc(C)c4[nH]ncc4c3)CC1)O2` [Ex. A7, 6-methoxy-1′-[(7-methyl-1H-indazol-5-yl)carbonyl]spiro[chromene-2,4′-piperidin]-4(3H)-one trifluoroacetic acid salt]: the figures for the IC50 in experiment [1] and in experiment [2] (ACC1 from rat liver) were 138 nM and 32.5 nM, respectively. Regarding `CCOc1ccc2c(c1)C(=O)CC1(CCN(C(=O)c3cccc(-c4cc[nH]n4)c3)CC1)O2` [Ex. N2, 6-ethoxy-1′-[3-(1H-pyrazol-3-yl)benzoyl]spiro[chromene-2,4′-piperidin]-4(3H)-one], the figures for the IC50 in experiment [1] and in experiment [2] (ACC1 from rat liver) were 91.7 nM and 43.2 nM, respectively. With `CC(C)c1ccc2c(c1)C(=O)CC1(CCN(C(=O)c3cccc4cn[nH]c34)CC1)O2` [Ex. H10, 1′-(1H-indazol-7-ylcarbonyl)-6-isopropylspiro[chromene-2,4-piperidin]-4(3H)-one], the IC50 in experiment [2] (ACC1 from rat liver) is 693 nM. Compound `COc1ccc2c(c1F)C(=O)CC1(CCN(C(=O)c3cccc(-c4cc[nH]n4)c3)CC1)O2` [Ex. M14, 5-fluoro-6-methoxy-1′-[3-(1H-pyrazol-3-yl)benzoyl]spiro[chromene-2,4′-piperidin]-4(3H)-one] gave an IC50 in experiment [2] (Table of Examples M1-M36) of 223 nM. Regarding `COc1cccc2c1C(=O)CC1(CCN(C(=O)c3cc(C)c4[nH]ncc4c3)CC1)O2` [Ex. A25, 5-methoxy-1′-[(7-methyl-1H-indazol-5-yl)carbonyl]spiro[chromene-2,4′-piperidin]-4(3H)-one], the IC50 in experiment [2] (ACC1 from rat liver) turned out to be 112 nM. In the case of `Cc1cc2c(cc1C)C(=O)CC1(CCN(C(=O)c3cccc(-c4cc(C(F)(F)F)[nH]n4)c3)CC1)O2` [Ex. P1, 6,7-dimethyl-1′-{3-[5-(trifluoromethyl)-1H-pyrazol-3-yl]benzoyl}spiro-[chromene-2,4′-piperidin]-4(3H)-one], the midpoint of inhibition in experiment [2] (Table of Examples P1-P15), the IC50, lay at 215 nM.

`COc1cc2c(cc1OC)C(=O)CC1(CCN(C(=O)c3cccc(-c4cc[nH]n4)c3)CC1)O2` [Ex. M31, 6,7-Dimethoxy-1′-[3-(1H-pyrazol-3-yl)benzoyl]spiro[chromene-2,4′-piperidin]-4(3H)-one] came in with an IC50 in experiment [2] (Table of Examples M1-M36) of 697 nM. This lies in the sub-micromolar range.

With `Cc1cc(C(=O)N2CCC3(CC2)CC(=O)c2c(Cl)cc(Cl)cc2O3)cc2cn[nH]c12` [Ex. A30, 5,7-dichloro-1′-[(7-methyl-1H-indazol-5-yl)carbonyl]spiro[chromene-2,4′-piperidin]-4(3H)-one], the IC50 in experiment [2] (ACC1 from rat liver) came to 209 nM. This lies in the sub-micromolar range. In experiment [2] (Table of Examples P1-P15), `Cc1cc2c(cc1C)C(=O)CC1(CCN(C(=O)c3cc(-c4cc[nH]n4)ccc3Cl)CC1)O2` [Ex. P5, 1′-[2-chloro-5-(1H-pyrazol-3-yl)benzoyl]-6,7-dimethylspiro[chromene-2,4′-piperidin]-4(3H)-one trifluoroacetic acid salt] showed an IC50 of less than 3000 nM.

In experiment [2] (ACC1 from rat liver), `COc1cccc2c1C(=O)CC1(CCN(C(=O)c3ccc4[nH]c(C)c(C)c4c3)CC1)O2` [Ex. L11, 1′-[(2,3-dimethyl-1H-indol-5-yl)carbonyl]-5-methoxyspiro[chromene-2,4′-piperidin]-4(3H)-one] came in with an IC50 of 113 nM. In experiment [2] (ACC1 from rat liver), `CC(C)n1nnc2cc(C(=O)N3CCC4(CC3)CC(=O)c3cc(Cl)ccc3O4)ccc21` [Ex. L42, 6-chloro-1′-[(1-isopropyl-1H-1,2,3-benzotriazol-5-yl)carbonyl]spiro[chromene-2,4′-piperidin]-4(3H)-one] yielded an IC50 of more than 1000 nM.

In experiment [2] (ACC1 from rat liver), `Cc1cc2c(cc1C)C(=O)CC1(CCN(C(=O)c3ccc4c(C)n[nH]c4c3)CC1)O2` [Ex. F1, 6,7-dimethyl-1′-[(3-methyl-1H-indazol-6-yl)carbonyl]spiro[chromene-2,4′-piperidin]-4(3H)-one] gave an IC50 of 35.7 nM. In other words, the double-digit nanomolar range. In turn, `COc1cccc2c1C(=O)CC1(CCN(C(=O)c3cc(Cl)c4[nH]ncc4c3)CC1)O2` [B6, 1′-[(7-chloro-1H-indazol-5-yl)carbonyl]-5-methoxyspiro[chromene-2,4′-piperidin]-4(3H)-one] showed a concentration for half-maximal inhibition (IC50) in experiment [2] (ACC1 from rat liver) of 109 nM.

Consider `NC(=O)c1ccc2c(c1)C(=O)CC1(CCN(C(=O)c3cccc(-c4cc[nH]n4)c3)CC1)O2` [Ex. M5, 4-oxo-1′-[3-(1H-pyrazol-3-yl)benzoyl]-3,4-dihydrospiro[chromene-2,4′-piperidine]-6-carboxamide], for which the 50% inhibitory concentration (IC50) in experiment [2] (Table of Examples M1-M36) came to 118 nM.

In experiment [2] (ACC1 from rat liver), `O=C1CC2(CCN(C(=O)c3cccc4cn[nH]c34)CC2)Oc2c(Cl)cc(Cl)cc21` [Ex. H22, 6,8-dichloro-1′-(1H-indazol-7-ylcarbonyl)spiro[chromene-2,4′-piperidin]-4(3H)-one] displayed an IC50 of 2660 nM. That is a single-digit micromolar value. The same measure, in the same setting: next, `COc1cccc2c1C(=O)CC1(CCN(C(=O)c3cccc4cn[nH]c34)CC1)O2` [Ex. H20, 1′-(1H-indazol-7-ylcarbonyl)-5-methoxyspiro[chromene-2,4′-piperidin]-4(3H)-one]: 2430 nM. The compound `CC(C)NC(=O)c1ccc2c(c1)C(=O)CC1(CCN(C(=O)c3cccc(-c4cc[nH]n4)c3)CC1)O2` [Ex. M17, N-isopropyl-4-oxo-1′-[3-(1H-pyrazol-3-yl)benzoyl]3,4-dihydrospiro[chromene-2,4′-piperidine]-6-carboxamide] showed an IC50 in experiment [2] (Table of Examples M1-M36) of 350 nM. `O=C1CC2(CCN(C(=O)c3cccc4cn[nH]c34)CC2)Oc2ccccc21` had an IC50 in experiment [2] (ACC1 from rat liver) of 3540 nM. Same read-out and setting: the value for `Cc1cc(C(=O)N2CCC3(CC2)CC(=O)c2cc(C(N)=O)ccc2O3)cc2cn[nH]c12` [Ex. A10, 1′-[(7-methyl-1H-indazol-5-yl)carbonyl]-4-oxo-3,4-dihydrospiro[chromene-2,4′-piperidine]-6-carboxamide] was 38.2 nM.
